# Source: patent US8158389B2, “Products and methods for in vivo secretion of monatin” (priority 2005, dated 2012)
# What was measured:
# E. coli MG1655 = assay: Monatin excretion with 2.5 mM sodium decanoate, E. coli MG1655 strains with pUC19, marA or baeR (30, 72 h); format: cell-based, Escherichia coli
# Description: The strain used for the experiment was E. coli MG1655: : aspC/proA/pProNde together with the marA gene from E. coli cloned into the pUC19 vector (GenBank/EMBL accession number L09137). The control strain was E. coli MG1655: : aspC/proA/pProNde along with the pUC19 vector. The marA gene was amplified from E. coli W3110 with PCR technology (known to one skilled in the art) using the primers E. coli MarASalIF-5′[…]3′ (SEQ ID NO. 24) and E. coli MarABamHIR-5′[…]3′ (SEQ ID NO. 25). For inoculum, the E. coli strains were grown overnight at 37° C. and 250 rpm in Luria-Bertani (“LB”) medium with 100 μg/mL ampicillin and 50 μg/mL kanamycin.
# For the experimental treatments, Trp-1+glucose medium, a minimal medium that has been used for increased production of tryptophan in E. coli cells (Zeman, et al. Folia Microbiol. 35:200-204, (1990)), was prepared as follows. To 800 mL nanopure water the following reagents were added: 2 g (NH4)2SO4 and 13.6 g KH2PO4. The pH was adjusted to 7.0, the volume was increased to 948 mL, and the medium was autoclaved. Following sterilization, 0.2 g MgSO4.7H2O, 0.01 g CaCl2.2H2O, and 0.5 mg FeSO4.7H2O were added to the medium in a 1.8 mL volume followed by addition of 0.2 mL of Neidhardt's micronutrient solution. Neidhardt F. C., et al., “Culture medium for Enterobacteria,” J. Bacteriol. 119:736-746, (1974). Neidhardt's medium includes (per liter): 0.18 g (NH4)6(MO7)24.4H2O, 1.24 g H3BO3, 0.36 g CoCl2.6H2O, 0.12 g CuSO4 (anhydrous), 0.8 g MnCl2.4H2O, and 0.14 g ZnSO4.7H2O. A 50% glucose solution was prepared separately and sterile-filtered. Forty mL of glucose solution and 10 mL of 1 M 3-Morpholinopropanesulfonic acid (“MOPS”) buffer were added to the base medium (950 mL) for a 1 L final volume.
# Conditions for the treatments included 250 rpm agitation throughout and 37° C. up to induction, then, 30° C. following induction. At an OD600 nm between 0.35-0.50, induction of the plasmid genes was initiated. At induction, 1.0 mM IPTG, 0.5% L-arabinose, 0.5 mM pyridoxine hydrochloride, and 0.2 mLs of Balch's vitamins were added. Additions of 10 g/L L-tryptophan, 10 g/L sodium pyruvate, 0.04 mM pyridoxal-5′-phosphate (“PLP”) and 0.2% Tween® 20 (polyoxyethylene 20-sorbitan monolaurate) were made 3.0 hours following induction. At 24 hours after inoculation, 10 g/L of sodium pyruvate was added to each flask again. Some treatments included 2.5 mM sodium decanoate addition at 3.0 hours following induction.
# The strains used for the experiment were E. coli. MG1655 : : aspC/proA/pProNde in combination with either baeR or no insert in the pUC19 vector. The baeR gene was amplified from E. coli W3110 by using primers, E. coli baeRSalIF 5′[…]3′ (SEQ ID NO. 26) and E. coli baeRBamHIR 5′[…]3′ (SEQ ID NO. 27), which introduced SalI and BamHI sites at the end of the amplified fragment. The PCR fragment was cloned between the SalI and BamHI sites of the vector pUC19 (GenBank/EMBL accession number L09137). For inoculum, the E. coli strains were grown overnight at 37° C. and 250 rpm in Luria-Bertani (“LB”) medium with 100 μg/mL ampicillin and 50 μg/mL kanamycin.
# For the experimental treatments, Trp-1+glucose medium, a minimal medium that has been used for increased production of tryptophan in E. coli cells (Zeman et al. Folia Microbiol. 35:200-204, (1990)), was prepared as follows. To 800 mL nanopure water the following reagents were added: 2 g (NE4)2SO4 and 13.6 g KH2PO4. The pH was adjusted to 7.0, the volume was increased to 948 mL, and the medium was autoclaved. Following sterilization, 0.2 g MgSO4.7H2O, 0.01 g CaCl2.2H2O, and 0.5 mg FeSO4.7H2O were a to the medium in a 1.8 mL volume followed by addition of 0.2 mL of Neidhardt's micronutrient solution. Neidhardt F. C., et al., “Culture medium for Enterobacteria,” J. Bacteriol. 119:736-746 (1974). Neidhardt's medium includes (per liter): 0.18 g (NH4)6(MO7)24.4H2l O, 1.24 g H3BO3, 0.36 g CoCl2.6H2O, 0.12 g CuSO4 (anhydrous), 0.8 g MnCl2.4H2O, and 0.14 g ZnSO4.7H2O. […]
# E. coli BL21 DE3 = assay: Preliminary study: novobiocin tolerance after sodium decanoate addition; format: cell-based, Escherichia coli; conditions: 2.5 mM sodium decanoate added to the medium
# Description: This was taken as evidence that acrAB genes are induced with sodium decanoate addition and conferred resistance to novobiocin. Rosenberg, E. Y., et al., Molecular Microbiol. 48:1609-1619, (2003).
# [1] = E. coli MG1655 AspC ProA pProNde del BaeR pUC19, n = 2
# [2] = E. coli MG1655 AspC ProA pProNde del MarA pUC19, n = 2
# [3] = E. coli MG1655 aspC proA pProNde del pUC19 (control), n = 2
structure (smiles),measurement,setting,value
CCCCCCCCCC(=O)[O-].[Na+] [sodium decanoate],"Mean monatin per dry cell weight, 30 hours",E. coli MG1655; [1],16.2 mg/g
same,"Mean monatin per dry cell weight, 72 hours",E. coli MG1655; [1],66.8 mg/g
same,"Mean monatin per dry cell weight, 30 hours",E. coli MG1655; [2],8.5 mg/g
same,"Mean monatin per dry cell weight, 72 hours",E. coli MG1655; [2],51.9 mg/g
same,"Mean monatin per dry cell weight, 30 hours",E. coli MG1655; [3],2.4 mg/g
same,"Mean monatin per dry cell weight, 72 hours",E. coli MG1655; [3],2.7 mg/g
same,tolerance to novobiocin,E. coli BL21 DE3,80 to 160 µg/mL
